One substance from patent US20040253207A1, “Methods and compositions for prostate epithelial cell differentiation” (Barnes-Jewish Hospital, priority 2002, published 2004) can be followed below.

Common to all, as to type: cell-based, human
Assay [1] deals with LNCaP cells. In words: Prostate epithelial cell differentiation markers (cytokeratin immunoblot), LNCaP. The conditions noted are these: various concentrations of CMK, 72 hours, serum-free RPMI 1640. How it is done: (§1) Cells (approximately 1×10^6 cells) were seeded in 100 mm cell culture dishes and cultured in RPMI 1640 supplemented with 10% fetal bovine serum at 5% CO2. Subconfluent cells were washed with phosphate buffered saline (PBS), lysed in lysis buffer (Cell Signaling Technology, Beverly, Mass.) and used for cell lysate. For the detection of PDF in conditioned media, subconfluent cells were serum-starved for 24 h. The serum free media were collected and precipitated with 10% trichloroacetic acid. After centrifugation, pellets were dissolved in the buffer which consisted of 8 M urea, 50 mM Tris (pH 8.0) and 0.1% NP-40. Samples were mixed in 5× Laemmli sample buffer with 2% beta-mercaptoethanol, subjected to electrophoresis on a 15% SDS-polyacrylamide gel, and transferred to PVDF membranes. Membranes were blocked with PBS containing 0.1% Tween 20 and 5% non-fat dry milk for 1 h at room temperature and incubated with the appropriate primary antibodies and antisera (1:500-2000) overnight at 4° C. After the membranes were washed three times with PBS containing 0.1% Tween 20, the membranes were incubated with appropriate horse-radish peroxidase-conjugate secondary antibodies (1:2000) for 1 h at 4° C. The protein bands were visualized by chemiluminescence using SuperSignal West Pico ECL kit (PIERCE, Rockford, Ill.). This protocol was used for the detection of PDF, cytokeratin and PSA. […]

Assay [2] relates to proprotein convertases (PCs) in LNCaP, PC3 and DU145 cells. As to the kind of experiment: Proprotein convertase activity assay (cleavage of fluorogenic substrate boc-RVRR-amc). The conditions noted are these: 100 μM CMK for 24 hours. As to the method: For determination of cellular PC activity, 30,000 cells were seeded in 48-well plates for 24 hours. The next day, growth medium and CMK were added until a final concentration of 100 μM was reached. After a 24-hour incubation, media were replaced and cells were washed with PBS. Additional 48-well plates were prepared in the same manner for the determination of cell number which was used for normalization. 150 μl of assay medium which consists of RPMI 1640 with 0.25% Triton X-100 for permeabilization and boc-RVRR-amc (100 μM) as a fluorogenic substrate were added to each well. Fluorescence was measured at 360 nm excitation and 460 nm emission wavelengths after 4 h of substrate addition. The data were normalized to cell number. Human recombinant furin (Sigma, St. Louis, Mo.) was used for positive control.
PC activity in prostate cancer cells and inhibition of PC activity by CMK was next examined. LNCaP, PC3 and DU 145 cells were incubated in the presence or absence of 100 μM CMK for 24 hours. Thereafter, 100 μM fluorogenic substrate, boc-RVRR-amc, was added and cells were incubated for an additional four hours. PC activity was assayed by measuring the cleavage of the fluorogenic substrate.

The test system of assay [3] is PDF processing in LNCaP cells. As to the kind of experiment: PC-dependent PDF processing in LNCaP cells, immunoblot for pro-PDF and mature PDF. The following applies: various concentrations of CMK, 24 hours. As to the method: Cells (approximately 1×10^6 cells) were seeded in 100 mm cell culture dishes and cultured in RPMI 1640 supplemented with 10% fetal bovine serum at 5% CO2. Subconfluent cells were washed with phosphate buffered saline (PBS), lysed in lysis buffer (Cell Signaling Technology, Beverly, Mass.) and used for cell lysate. For the detection of PDF in conditioned media, subconfluent cells were serum-starved for 24 h. The serum free media were collected and precipitated with 10% trichloroacetic acid. After centrifugation, pellets were dissolved in the buffer which consisted of 8 M urea, 50 mM Tris (pH 8.0) and 0.1% NP-40. Samples were mixed in 5× Laemmli sample buffer with 2% beta-mercaptoethanol, subjected to electrophoresis on a 15% SDS-polyacrylamide gel, and transferred to PVDF membranes. Membranes were blocked with PBS containing 0.1% Tween 20 and 5% non-fat dry milk for 1 h at room temperature and incubated with the appropriate primary antibodies and antisera (1:500-2000) overnight at 4° C. After the membranes were washed three times with PBS containing 0.1% Tween 20, the membranes were incubated with appropriate horse-radish peroxidase-conjugate secondary antibodies (1:2000) for 1 h at 4° C. The protein bands were visualized by chemiluminescence using SuperSignal West Pico ECL kit (PIERCE, Rockford, Ill.). This protocol was used for the detection of PDF, cytokeratin and PSA.
PC-dependent PDF processing in LNCaP cells was also examined in the presence of CMK by immunoblotting for PDF. Cells were cultured and serum-starved with and without various concentrations of CMK for 24 hours. Cells and supernatants were electrophoresed on 15% SDS-PAGE. Immunoblots were performed with anti-pro-PDF antibody (˜40 kd pro-PDF form) and anti-PDF antisera (˜17 kd mature PDF form).

Assay [4] relates to PSA expression in LNCaP cells. As to the kind of experiment: DHT-stimulated PSA expression in LNCaP cells (anti-PSA immunoblot). The following applies: various concentrations of CMK, 24 hours. As to the method: as §1

*: point of attachment. Decanoyl = CCCCCCCCCC(=O)*; CH2Cl = ClC*

Turning to “decanoyl-Arg-Val-Lys-Arg-chloromethylketone (Decanoyl-RVKR-CH2Cl) [CMK]”, in assay [1], the “expression of cytokeratin 8, 18 and 19” value is “down-regulated”; the “expression of cytokeratin 14” value is on record as “upregulated in a dose-dependent manner”. Moreover, the “PC activity (cleavage of boc-RVRR-amc)” value in assay [2] is given as “inhibition of PCs”. For the same substance, the “cellular PDF” value in assay [3] (LNCaP cell lysate) is “did not affect”. Also, in assay [3] (serum-starved), the “PDF processing (mature PDF) in LNCaP-conditioned media” value is “reduction of PDF processing in LNCaP-conditioned media in a dose-dependent manner” and the “pro-PDF in LNCaP-conditioned media” value was “concomitant increase in pro-PDF”. Besides, the “levels of endogenous PSA” value in assay [4] (in the absence of DHT) is on record as “not affected”. The “androgen-induced PSA expression” value in assay [4] (in the presence of DHT) is listed as “inhibited”.
